Measured values as given in US20040014140A1, “Methods for identifying allosteric sites” (priority 2002, published 2004).

Legend:
[1] = tested on: mutant PTP-1B where Asn-193 is mutated to alanine, Phe-196 is mutated to arginine, and Phe-280 is mutated to cysteine; experiment: Inhibition of allosterically disabled mutant PTP-1B; format: biochemical, human; settings: N193A, F196R, F280C mutant; allosteric mechanism disabled
Description: The importance of allosteric forming residues, Asn-193, Phe-196, and Phe-280 has been confirmed in part using mutagenesis experiments.
PTP-1B[321; N193A; F196R; F280C] was generated by joining an NdeI-PstI fragment from PTP-IB[321; N193A; F196R], corresponding to residues 1-215, with a PstI-EcoRI fragment from PTP-1B[321; F280C], corresponding to residues 216-321.
PTP-1B[298; N193A; F196R; F280C] was generated by PCR using PTP-1B[321; N193A; F196R; F280C] as a template. T7 vector primer was used as forward primer and truncation at residue 298 was generated using the primer 5′-[…] (SEQ ID. NO. 22).

caspase-9 = experiment: Tethering experiments with caspase-9; design: species or system human; settings: binding to the small subunit, cysteine corresponding to Ile-265 in caspase-3
Description: This example describes one embodiment of a tethering experiment using caspase-3 or cysteine mutants thereof. […] Reactions were allowed to proceed to equilibrium (≧1 hour) before being analyzed by mass spectrometry. The reaction mixture was loaded onto a Finnegan LCQ2 or LCQ3 LCMS, with each run taking 2-5 minutes, depending upon the separation procedure. After deconvolution, the large and/or small subunits were identified based upon their known molecular weight.

Row | Compound | inhibition of mutant PTP-1B [1] | selection in tethering experiments (caspase-9)
1 | CCc1oc2cc(S(=O)(=O)Nc3ccc(S(N)(=O)=O)cc3)ccc2c1C(=O)c1cc(Br)c(O)c(Br)c1 [compound 15] | no longer capable of inhibiting the enzyme | 
2 | O=C(O)c1ccc(Oc2ccccc2)cc1 [compound 8] |  | selected
